As a reminder, the IC50 is the midpoint of a concentration-inhibition curve.

One test has as its target T1, RET V804M (Homo sapiens, UniProt P07949, V804M).
T1 construct: either as full-length or enzymatically active fragments; purchased ProQinase GmbH (Freiburg, Germany)
In words: Radiometric protein kinase assay (33PanQuinase Activity Assay), RET V804M. It is filed as biochemical. The conditions noted are these: ATP 0.3 μM. How it is done:
(§1) A proprietary radiometric protein kinase assay (33PanQuinase® Activity Assay) developed by ProQuinase GmbH (Freiburg, Germany) was used for measuring the kinase activity of selected protein kinases. All assays were performed in FlashPlates™ wells 96 Perkin Elmer (Boston, Mass., USA) in a reaction volume of 50 μl. The reaction mixture was obtained in 4 steps in the following order: • 1. 10 μl of a solution of non-radioactive ATP in water; • 2. 25 μl of assay buffer/[γ-^33P]-ATP mixture • 3. 5 μl of test sample in 10% DMSO • 4. 10 μl of enzyme/substrate mixture
(§2) All protein kinases provided by ProQinase were expressed in Sf9 insect cells or in E. coli as recombinant GST-fusion proteins or His-tagged proteins, either as full-length or enzymatically active fragments. […] Kinases from external vendors (CAR=Carna Biosciences Inc.; INV=Life Technologies (Invitrogen Corporation); MIL=Merck-Millipore (Millipore Corporation), were expressed, purified and quality-controlled by virtue of the vendors readings.
(§3) A stock solution of compound of formula (I) was diluted to 5×10-04M/100% DMSO. […] Incorporation of 33Pi (counting of “cpm”) was determined with a microplate scintillation counter (Microbeta, Wallac). […]
(§4) Based on each 10 corresponding residual activities, IC50 values were calculated using Prism 5.04 for Windows (Graphpad, San Diego, Calif.). […]

For the next test, the target named is T2, EPHB2 (Homo sapiens, UniProt P29323).
T2 construct: either as full-length or enzymatically active fragments; purchased ProQinase GmbH (Freiburg, Germany)
T2 sequence (P29323 19-1055): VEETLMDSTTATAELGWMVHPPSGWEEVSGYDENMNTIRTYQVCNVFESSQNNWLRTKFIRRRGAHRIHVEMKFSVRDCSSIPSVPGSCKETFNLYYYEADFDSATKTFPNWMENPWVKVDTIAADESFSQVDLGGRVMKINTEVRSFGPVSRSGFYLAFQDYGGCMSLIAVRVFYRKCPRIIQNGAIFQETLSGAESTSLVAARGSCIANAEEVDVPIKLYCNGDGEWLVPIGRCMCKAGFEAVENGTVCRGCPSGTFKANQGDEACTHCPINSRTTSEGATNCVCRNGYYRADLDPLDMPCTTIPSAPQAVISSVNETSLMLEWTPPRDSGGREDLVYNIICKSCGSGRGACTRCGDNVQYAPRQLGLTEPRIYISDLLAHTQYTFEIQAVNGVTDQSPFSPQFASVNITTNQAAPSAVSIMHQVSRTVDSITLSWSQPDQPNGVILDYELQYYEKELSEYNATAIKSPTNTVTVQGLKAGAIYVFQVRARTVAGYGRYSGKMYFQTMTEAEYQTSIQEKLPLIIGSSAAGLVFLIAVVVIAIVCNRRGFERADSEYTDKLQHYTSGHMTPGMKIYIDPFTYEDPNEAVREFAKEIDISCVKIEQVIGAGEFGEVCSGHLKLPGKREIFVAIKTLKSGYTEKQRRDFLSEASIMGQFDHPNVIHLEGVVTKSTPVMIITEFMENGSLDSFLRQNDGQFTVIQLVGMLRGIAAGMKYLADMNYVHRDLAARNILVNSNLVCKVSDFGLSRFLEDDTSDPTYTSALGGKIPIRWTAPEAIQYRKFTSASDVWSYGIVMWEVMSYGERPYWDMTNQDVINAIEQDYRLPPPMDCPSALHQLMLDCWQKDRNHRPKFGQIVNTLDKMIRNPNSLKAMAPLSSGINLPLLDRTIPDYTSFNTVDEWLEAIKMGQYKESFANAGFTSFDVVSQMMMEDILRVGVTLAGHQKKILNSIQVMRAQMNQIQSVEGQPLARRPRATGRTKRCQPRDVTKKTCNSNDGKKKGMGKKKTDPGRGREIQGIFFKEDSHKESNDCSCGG
As to the kind of experiment: Radiometric protein kinase assay (33PanQuinase Activity Assay), EPHB2. The test is classed as biochemical. The conditions noted are these: ATP 0.3 μM. Here is the method: as §1, §2, §3, §4

T1 sequence (P07949 29-1114 V804M): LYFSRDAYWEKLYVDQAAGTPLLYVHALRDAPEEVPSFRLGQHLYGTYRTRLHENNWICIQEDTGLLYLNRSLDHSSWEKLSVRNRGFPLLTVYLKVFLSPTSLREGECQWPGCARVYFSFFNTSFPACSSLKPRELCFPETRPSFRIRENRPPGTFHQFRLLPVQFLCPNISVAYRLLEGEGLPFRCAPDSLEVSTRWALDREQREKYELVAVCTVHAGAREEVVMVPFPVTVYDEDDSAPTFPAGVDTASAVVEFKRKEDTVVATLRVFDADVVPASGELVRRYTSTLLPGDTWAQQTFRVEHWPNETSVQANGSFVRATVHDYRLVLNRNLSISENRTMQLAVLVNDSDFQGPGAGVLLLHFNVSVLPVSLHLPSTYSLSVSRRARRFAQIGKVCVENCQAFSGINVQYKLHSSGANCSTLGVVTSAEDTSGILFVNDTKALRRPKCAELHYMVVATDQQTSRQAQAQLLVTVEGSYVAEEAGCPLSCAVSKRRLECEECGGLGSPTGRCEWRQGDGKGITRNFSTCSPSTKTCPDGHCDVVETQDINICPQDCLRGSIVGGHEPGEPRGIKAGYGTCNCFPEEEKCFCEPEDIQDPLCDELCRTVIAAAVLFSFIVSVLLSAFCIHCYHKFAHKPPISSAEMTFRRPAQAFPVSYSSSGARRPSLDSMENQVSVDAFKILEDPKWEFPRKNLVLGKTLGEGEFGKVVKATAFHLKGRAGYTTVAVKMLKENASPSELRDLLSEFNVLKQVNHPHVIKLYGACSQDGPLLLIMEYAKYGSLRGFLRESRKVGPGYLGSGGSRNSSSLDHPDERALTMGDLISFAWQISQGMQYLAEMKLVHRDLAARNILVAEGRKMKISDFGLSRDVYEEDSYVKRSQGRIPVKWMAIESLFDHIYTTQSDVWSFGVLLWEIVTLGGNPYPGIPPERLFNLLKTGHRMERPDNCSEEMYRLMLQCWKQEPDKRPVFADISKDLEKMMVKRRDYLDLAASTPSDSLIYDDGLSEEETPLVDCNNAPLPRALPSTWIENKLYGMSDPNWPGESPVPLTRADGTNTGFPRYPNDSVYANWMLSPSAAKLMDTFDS

As for `CN1CCN(c2ccc(C(=O)Nc3n[nH]c4cc(-c5ccc(O)cc5)c(Cc5cc(F)cc(F)c5)cc34)c(NC3CCOCC3)c2)CC1` [Example 3, N-[5-[(3,5-difluorophenyl)methyl]-6-(4-hydroxyphenyl)-1H-indazol-3-yl]-4-(4-methylpiperazin-1-yl)-2-(tetrahydropyran-4-ylamino)benzamide], the IC50 against RET V804M came out at 85 nM; at EPHB2, 90 nM.

The values are drawn from US10336707B2, “Heterocyclic derivatives modulating activity of certain protein kinases” (EUDENDRON S.R.L., priority 2014, dated 2019).
